Among the data in US20110264139A1, “SUTURES AND FIBROSING AGENTS” (Angiotech Pharmaceuticals, Inc., priority 2006, published 2011) are Minimum inhibitory concentration values, retold here.

What all share (assay): MIC assay, microtitre broth dilution
Type in all cases: cell-based
A general note: Dilution methods test growth across graded concentrations, often in twofold steps.

For test [1], the system named is P. aeruginosa PAE/K799 H187. As to conditions: P. aeruginosa PAE/K799 H187 wt, Gram −; Mueller Hinton broth, 37° C., 24 h. The procedure: (§1) MIC assays were conducted essentially as described by Amsterdam, D. 1996, “Susceptibility testing of antimicrobials in liquid media,” p. 52-111. In Loman, V., ed. Antibiotics in Laboratory Medicine, 4th ed. Williams and Wilkins, Baltimore, Md. Briefly, a variety of compounds were tested for antibacterial activity against isolates of P. aeruginosa, K. pneumoniae , E. coli, S. epidermidus, and S. aureus in the MIC (minimum inhibitory concentration) assay under aerobic conditions using 96 well polystyrene microtitre plates (Falcon 1177), and Mueller Hinton broth at 37° C. incubated for 24 h. (MHB was used for most testing except C721 (S. pyogenes), which used Todd Hewitt broth, and Haemophilus influenzae, which used Haemophilus test medium (HTM)). Tests were conducted in triplicate.

Another test deals with S. pyogenes C721. The settings on record: S. pyogenes C721 wt, Gram +; Todd Hewitt broth, 37° C., 24 h. How it is done: as §1
The subject of a further test is S. aureus ATCC25923 C622. The settings on record: S. aureus ATCC25923 C622 wt, Gram +; Mueller Hinton broth, 37° C., 24 h. The procedure: as §1
A further test concerns E. Coli UB1005 C498. The settings on record: E. Coli UB1005 C498 wt, Gram −; Mueller Hinton broth, 37° C., 24 h. How it is done:
as §1

A further test relates to S. epidermidis C621. As to conditions: S. epidermidis C621 wt, Gram +; Mueller Hinton broth, 37° C., 24 h. The procedure:
as §1

For test [2], the system named is K. pneumoniae ATCC13883 C238. As to conditions: K. pneumoniae ATCC13883 C238 wt, Gram −; Mueller Hinton broth, 37° C., 24 h. How it is done: as §1

Consider `O=C1c2c(O)ccc(O)c2C(=O)c2c(NCCNCCO)ccc(NCCNCCO)c21` [mitoxantrone], for which the Minimum inhibitory concentration in test [1] is recorded as 10^−5 molar; in the test with S. pyogenes C721, 10^−6 molar; with S. aureus ATCC25923 C622, 10^−5 molar; in the test with E. Coli UB1005 C498 it was 10^−5 molar; in the test on S. epidermidis C621, 10^−5 molar; in test [2], 10^−6 molar.

As for cisplatin, the Minimum inhibitory concentration in test [1] is 10^−4 molar; with S. pyogenes C721, “N”; in the test with S. aureus ATCC25923 C622, “N”; with E. Coli UB1005 C498 it was “N”; in the test with S. epidermidis C621, “N”; in test [2], “N”.

As for `Sc1ncc2[nH]cnc2n1` [2-mercaptopurine], the Minimum inhibitory concentration result (in test [1]; in the test on S. pyogenes C721; with S. aureus ATCC25923 C622; with E. Coli UB1005 C498; in the test on S. epidermidis C621; in test [2]) was “N” throughout.

Take `CC[C@@]1(O)C(=O)OCc2c1cc1n(c2=O)Cc2cc3ccccc3nc2-1` [camptothecin]: the Minimum inhibitory concentration result in test [1] is “N”; with S. pyogenes C721, “N”; with S. aureus ATCC25923 C622, “N”; with E. Coli UB1005 C498, “N”; in the test on S. epidermidis C621 it was 10^−4 molar; in test [2] it was “N”.

With `CN(Cc1cnc2nc(N)nc(N)c2n1)c1ccc(C(=O)N[C@@H](CCC(=O)O)C(=O)O)cc1` [methotrexate], the Minimum inhibitory concentration entry in test [1] was “N”; with S. pyogenes C721, 10^−6 molar; in the test on S. aureus ATCC25923 C622, 10^−5 molar; in the test with E. Coli UB1005 C498, “N”; in the test on S. epidermidis C621 it was “N”; in test [2] it was 10^−6 molar.

For `COc1cccc2c1C(=O)c1c(O)c3c(c(O)c1C2=O)C[C@@](O)(C(=O)CO)C[C@@H]3O[C@H]1C[C@H](N)[C@H](O)[C@H](C)O1` [doxorubicin], the Minimum inhibitory concentration in test [1] is reported as 10^−5 molar; with S. pyogenes C721 it was 10^−7 molar; in the test on S. aureus ATCC25923 C622, 10^−5 molar; in the test on E. Coli UB1005 C498 it was 10^−4 molar; in the test on S. epidermidis C621, 10^−6 molar; in test [2], 10^−6 molar.

For the compound `NC(=O)NO` [hydroxyurea], the Minimum inhibitory concentration in test [1] was 10^−4 molar; with S. pyogenes C721, 10^−4 molar; in the test with S. aureus ATCC25923 C622, “N”; in the test on E. Coli UB1005 C498 it was “N”; in the test on S. epidermidis C621, “N”; in test [2] it was “N”.

In the case of `Nc1ccn([C@@H]2O[C@H](CO)[C@@H](O)[C@@H]2O)c(=O)n1` [Cytarabine], the Minimum inhibitory concentration entry (in test [1]; with S. pyogenes C721; in the test with S. aureus ATCC25923 C622; with E. Coli UB1005 C498; in the test on S. epidermidis C621; in test [2]) was “N” throughout.

Consider `Sc1ncnc2nc[nH]c12` [6-mercaptopurine], for which the Minimum inhibitory concentration entry (in test [1]; with S. pyogenes C721; in the test on S. aureus ATCC25923 C622; with E. Coli UB1005 C498; in the test on S. epidermidis C621; in test [2]) was “N” in each case.

Take `O=c1[nH]cc(F)c(=O)[nH]1` [5-fluorouracil]: the Minimum inhibitory concentration in test [1] is 10^−5 molar; in the test on S. pyogenes C721, 10^−4 molar; with S. aureus ATCC25923 C622, 10^−7 molar; in the test with E. Coli UB1005 C498, 10^−6 molar; in the test on S. epidermidis C621, 10^−7 molar; in test [2], 10^−6 molar.

As to `COc1cc([C@@H]2c3cc4c(cc3[C@@H](O[C@@H]3O[C@@H]5CO[C@@H](C)O[C@H]5[C@H](O)[C@H]3O)[C@H]3COC(=O)[C@H]23)OCO4)cc(OC)c1O` [etoposide], the Minimum inhibitory concentration entry in test [1] is “N”; in the test with S. pyogenes C721, 10^−5 molar; in the test with S. aureus ATCC25923 C622, 10^−5 molar; in the test on E. Coli UB1005 C498, “N”; in the test on S. epidermidis C621, 10^−6 molar; in test [2], 10^−5 molar.

With `Nc1ncnc2c1ccn2[C@@H]1O[C@H](CO)[C@@H](O)[C@H]1O` [tubercidin], the Minimum inhibitory concentration result (in test [1]; with S. pyogenes C721; with S. aureus ATCC25923 C622; with E. Coli UB1005 C498; in the test with S. epidermidis C621; in test [2]) was “N” in each case.
